Tests used:
Plasminogen [1] = target: T1, Plasminogen (Homo sapiens, UniProt P00747); assay: Inhibition of plasmin (unknown origin) using Boc-Val-Leu-Lys-MCA as substrate by fluorescence analysis
[2] = target: Urokinase-type plasminogen activator (Homo sapiens, UniProt P00749); assay: Inhibition of urokinase (unknown origin) using Pyr-Gly-Arg-MCA as substrate by fluorescence analysis
Plasminogen [3] = target: T1, Plasminogen; assay: Inhibition of plasmin (unknown origin) assessed as relative potency using Boc-Val-Leu-Lys-MCA as substrate by fluorescence analysis

T1 sequence (P00747 97-580 limits assumed): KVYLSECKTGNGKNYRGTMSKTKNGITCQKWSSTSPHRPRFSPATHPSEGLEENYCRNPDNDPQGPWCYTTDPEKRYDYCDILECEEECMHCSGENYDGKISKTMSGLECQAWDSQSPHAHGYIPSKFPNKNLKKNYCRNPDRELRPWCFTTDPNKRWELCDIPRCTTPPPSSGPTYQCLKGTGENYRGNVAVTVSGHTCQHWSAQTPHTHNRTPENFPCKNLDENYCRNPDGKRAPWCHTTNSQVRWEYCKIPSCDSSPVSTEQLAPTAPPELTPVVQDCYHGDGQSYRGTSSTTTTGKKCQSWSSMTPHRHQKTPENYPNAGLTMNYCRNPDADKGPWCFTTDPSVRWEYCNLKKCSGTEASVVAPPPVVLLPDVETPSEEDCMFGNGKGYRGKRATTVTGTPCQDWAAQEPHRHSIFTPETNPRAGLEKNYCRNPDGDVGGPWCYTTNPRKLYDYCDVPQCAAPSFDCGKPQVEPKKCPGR
T1 sequence (P00747 581-810 limits assumed): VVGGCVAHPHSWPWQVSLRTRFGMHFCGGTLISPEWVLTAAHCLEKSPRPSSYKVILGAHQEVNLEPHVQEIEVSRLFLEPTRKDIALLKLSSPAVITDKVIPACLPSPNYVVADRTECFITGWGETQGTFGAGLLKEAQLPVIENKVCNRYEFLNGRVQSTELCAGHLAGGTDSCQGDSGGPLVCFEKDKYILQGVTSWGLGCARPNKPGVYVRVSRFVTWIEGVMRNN

Row | Compound | IC50 (Plasminogen [1]) [µM] | IC50 [2] [µM] | fold change (FC) (Plasminogen [3])
1 | Cn1c(CN2C(=O)CN(c3ccc(F)cc3)C2=O)cc2cnc(C(=O)N[C@H](C#N)CCCCN)nc21 | 43 | > 200 | 3
2 | Cn1c(CN2C(=O)CN(c3ccc4c(c3)oc(=O)n4Cc3ccncc3)C2=O)cc2cnc(C(=O)N[C@H](C#N)CCCCN)nc21 | > 200 |  | 
3 | Cn1c(CN2C(=O)CN(c3ccc(Oc4ccccc4)cc3)C2=O)nc2ccc(C(=O)N[C@H](C#N)CCCCN)cc21 | 25 |  | 
4 | Cn1c(CN2C(=O)CN(c3ccc(Oc4ccncc4)cc3)C2=O)nc2ccc(C(=O)N[C@H](C#N)CCCCN)cc21 | 56 | > 200 | 
5 | CCCn1c(=O)oc2ccc(N3CC(=O)N(Cc4cc5cnc(C(=O)N[C@H](C#N)CCCCN)nc5n4C)C3=O)cc21 | 26 |  | 
6 | CC(C)Cn1c(=O)oc2cc(N3CC(=O)N(Cc4cc5cnc(C(=O)N[C@H](C#N)CCCCN)nc5n4C)C3=O)ccc21 | > 200 |  | 
7 | CCCn1c(=O)oc2cc(N3CC(=O)N(Cc4cc5cnc(C(=O)N[C@H](C#N)CCCCN)nc5n4C)C3=O)ccc21 | 160 |  | 
8 | Cn1c(CN2C(=O)CN(c3ccc(Oc4ccccc4)cc3)C2=O)cc2cnc(C(=O)N[C@H](C#N)CCCCN)nc21 | 14 | > 200 | 1
9 | N#C[C@H](CCCCN)NC(=O)c1nc2cc(CN3C(=O)CN(c4ccc(F)cc4)C3=O)ccc2o1 | > 200 |  | > 14.3
10 | CC(C)Cn1c(=O)oc2ccc(N3CC(=O)N(Cc4cc5cnc(C(=O)N[C@H](C#N)CCCCN)nc5n4C)C3=O)cc21 | 29 |  | 

Further lines, results first:

Row | IC50 (Plasminogen [1]) [µM] | IC50 [2] [µM] | fold change (FC) (Plasminogen [3]) | Compound
11 | 74 | > 200 |  | Cn1c(CN2C(=O)CN(c3ccc(Oc4ccncc4)cc3)C2=O)cc2cnc(C(=O)N[C@H](C#N)CCCCN)nc21
12 | 100 | > 200 |  | Cn1c(CN2C(=O)CN(c3ccc(F)cc3)C2=O)nc2ccc(C(=O)N[C@H](C#N)CCCCN)cc21
13 | 130 |  | 3.9 | Cn1c(CN2C(=O)CN(c3ccc4c(c3)oc(=O)n4C)C2=O)cc2cnc(C(=O)N[C@H](C#N)CCCCN)nc21
14 | > 200 |  |  | Cn1c(CN2C(=O)CN(c3ccc(Oc4ccccc4)cc3)C2=O)nc2cc(C(=O)N[C@H](C#N)CCCCN)ccc21
15 | 23 |  |  | Cn1c(CN2C(=O)CN(c3ccc4oc(=O)n(Cc5ccncc5)c4c3)C2=O)cc2cnc(C(=O)N[C@H](C#N)CCCCN)nc21
16 | 43 |  | 3.1 | Cn1c(CN2C(=O)CN(c3ccc4oc(=O)n(C)c4c3)C2=O)cc2cnc(C(=O)N[C@H](C#N)CCCCN)nc21

From ChEMBL document CHEMBL3585277, “Novel type of plasmin inhibitors: providing insight into P4 moiety and alternative scaffold to pyrrolopyrimidine” (Bioorg Med Chem, 2015)
